The assay has as its system BDF1 mice, L1210/MTX-resistant leukemia ip, survival T/C. As to the kind of experiment: NCI In Vivo Anticancer Drug Screen. Data for tumor model L1210 Leukemia resistant to Methotrexate; NSC 740 (intraperitoneal) in B6D2F1 (BDF1) mice. The note with it: endpoint: mean survival time, higher = longer survival. The protocol:
The antitumor activity of compounds was measured in mice bearing transplantable tumors. Survival or tumor size were measured and the results are expressed as the measurement made in the treated group (T) divided by the measurement made in the vehicle treated control group (C). The tumor model used in this assay is L1210 Leukemia resistant to Methotrexate; NSC 740 (intraperitoneal) in B6D2F1 (BDF1) mice

The mark [1] stands for this setting: dose: 62.5 mg/kg/injection, schedule: Q01DX010 (ip), vehicle: saline.
[2] abbreviates: dose: 125.0 mg/kg/injection, schedule: Q01DX010 (ip), vehicle: saline.
The mark [3] stands for this setting: dose: 500.0 mg/kg/injection, schedule: Q01DX010 (ip), vehicle: saline.
[4] abbreviates: dose: 750.0 mg/kg/injection, schedule: Q01DX Z (ip), vehicle: saline.
Where [5] appears, read: dose: 500.0 mg/kg/injection, schedule: Q01DX Z (ip), vehicle: saline.
[6] abbreviates: dose: 50.0 mg/kg/injection, schedule: Q01DX Z (ip), vehicle: carboxymethylcellulose (CMC).
The mark [7] stands for this setting: dose: 6.25 mg/kg/injection, schedule: Q01DX Z (ip), vehicle: carboxymethylcellulose (CMC).
Setting [8] is: dose: 12.5 mg/kg/injection, schedule: Q01DX Z (ip), vehicle: carboxymethylcellulose (CMC).
Where [9] appears, read: dose: 25.0 mg/kg/injection, schedule: Q01DX Z (ip), vehicle: carboxymethylcellulose (CMC).
[10] abbreviates: dose: 12.5 mg/kg/injection, schedule: Q01DX010 (ip), vehicle: saline.
Setting [11] is: dose: 2.0 mg/kg/injection, schedule: Q01DX Z (ip), vehicle: carboxymethylcellulose (CMC).
[12] abbreviates: dose: 3.0 mg/kg/injection, schedule: Q01DX Z (ip), vehicle: carboxymethylcellulose (CMC).
Where [13] appears, read: dose: 4.0 mg/kg/injection, schedule: Q01DX Z (ip), vehicle: carboxymethylcellulose (CMC).
[14] abbreviates: dose: 6.0 mg/kg/injection, schedule: Q01DX Z (ip), vehicle: carboxymethylcellulose (CMC).
Where [15] appears, read: dose: 8.0 mg/kg/injection, schedule: Q01DX Z (ip), vehicle: carboxymethylcellulose (CMC).
[16] abbreviates: dose: 50.0 mg/kg/injection, schedule: Q01DX Z (ip), vehicle: saline.

Where “and” joins values, the source holds several entries; their conditions need not be identical. Equal values may be shown once. Inconclusive results and toxic doses are left out.

In the case of `CCOC(N)=O`, the T/C under setting [1] is 87 % of control; the T/C under setting [2] is 98 % of control; the T/C (dose: 188.0 mg/kg/injection, schedule: Q01DX Z (ip), vehicle: saline) was 102 % of control; the T/C (dose: 250.0 mg/kg/injection, schedule: Q01DX Z (ip), vehicle: saline) is 91 % of control; the T/C (dose: 375.0 mg/kg/injection, schedule: Q01DX Z (ip), vehicle: saline) is 87 % of control and 99 % of control; the T/C under setting [3] was 88 % of control. Further, the T/C under setting [4] was 93 % of control and the T/C (dose: 1500.0 mg/kg/injection, schedule: Q01DX Z (ip), vehicle: saline) was 100 % of control.
Regarding `C[C@H](N)C(=O)N[C@@H]1[C@H]2C(=C(O)C[C@@H](O)[C@@H]2O)C(=O)O[C@@H]1C`, the T/C is, setting by setting: under setting [5], 120 % of control; (dose: 600.0 mg/kg/injection, schedule: Q01DX Z (ip), vehicle: saline) 174 % of control and 187 % of control; (dose: 1000.0 mg/kg/injection, schedule: Q01DX Z (ip), vehicle: saline) 102 % of control and 110 % of control; (dose: 1200.0 mg/kg/injection, schedule: Q01DX Z (ip), vehicle: saline) 121 % of control and 122 % of control.
In the case of `CCc1nc(N)nc(N)c1-c1ccc(Cl)cc1`, the T/C (dose: 9.0 mg/kg/injection, schedule: Q01DX Z (ip), vehicle: carboxymethylcellulose (CMC)) is 92 % of control; the T/C (dose: 18.0 mg/kg/injection, schedule: Q01DX Z (ip), vehicle: carboxymethylcellulose (CMC)) was 96 % of control; the T/C (dose: 36.0 mg/kg/injection, schedule: Q01DX Z (ip), vehicle: carboxymethylcellulose (CMC)) was 95 % of control.
Consider `C[C@]12C=CC(=O)C=C1CC[C@@H]1[C@@H]2C(=O)C[C@@]2(C)[C@H]1CC[C@]2(O)C(=O)CO`, for which the T/C (dose: 25.0 mg/kg/injection, schedule: Q01DX010 (sc), vehicle: steriod suspending solution) is 90 % of control.
Take `Cn1c(O)c(N=NC(N)=S)c2ccccc21`: the T/C is 96 % of control under setting [6] and 86 % of control (dose: 100.0 mg/kg/injection, schedule: Q01DX Z (ip), vehicle: carboxymethylcellulose (CMC)).
`Nc1nc(SCc2ccccc2)c2[nH]cnc2n1`: the T/C is, setting by setting: under setting [7], 121 % of control; (dose: 8.0 mg/kg/injection, schedule: Q01DX010 (ip), vehicle: saline) 105 % of control; under setting [8], 114 % of control; (dose: 16.0 mg/kg/injection, schedule: Q01DX010 (ip), vehicle: saline) 120 % of control; under setting [9], 107 % of control; under setting [6], 105 % of control. Besides, the T/C (dose: 62.5 mg/kg/injection, schedule: Q01DX Z (ip), vehicle: carboxymethylcellulose (CMC)) is 95 % of control and the T/C (dose: 64.0 mg/kg/injection, schedule: Q01DX010 (ip), vehicle: saline) was 96 % of control.
In the case of `O=NN(CCCl)C(=O)NCCCl`, the T/C reads like this: under setting [10], 113 % of control; (dose: 25.0 mg/kg/injection, schedule: Q01DX010 (ip), vehicle: saline) 87 % of control and 91 % of control.
For the molecule `CC1(C)N=C(N)N=C(N)N1c1cccc(Br)c1`, the T/C was 97 % of control under setting [11]; 109 % of control under setting [7]; 98 % of control under setting [8]; 98 % of control under setting [9]; 92 % of control under setting [6].
As to `Cc1cc(N(CCCl)CCCl)ccc1N=Nc1ccccc1C(=O)O`, the T/C by setting is: (dose: 0.37 mg/kg/injection, schedule: Q01DX Z (ip), vehicle: carboxymethylcellulose (CMC)) 104 % of control; (dose: 0.75 mg/kg/injection, schedule: Q01DX Z (ip), vehicle: carboxymethylcellulose (CMC)) 124 % of control; under setting [12], 94 % of control; under setting [13], 109 % of control; (dose: 5.0 mg/kg/injection, schedule: Q01DX010 (ip), vehicle: saline) 123 % of control; under setting [14], 124 % of control. The T/C by setting is: under setting [15], 104 % of control; (dose: 10.0 mg/kg/injection, schedule: Q01DX010 (ip), vehicle: saline) 107 % of control; (dose: 10.0 mg/kg/injection, schedule: Q01DX Z (ip), vehicle: carboxymethylcellulose (CMC)) 97 % of control; (dose: 20.0 mg/kg/injection, schedule: Q01DX010 (ip), vehicle: saline) 88 % of control.
On to `O=c1[nH]cc(F)c(=O)[nH]1`, for which the T/C is, setting by setting: (dose: 25.0 mg/kg/injection, schedule: Q01DX Z (ip), vehicle: saline) 92 % of control and 101 % of control; under setting [16], 87 % of control and 93 % of control and 98 % of control.
For the molecule `CCCNc1ncnc2[nH]ncc12`, the T/C (dose: 3.13 mg/kg/injection, schedule: Q01DX010 (ip), vehicle: saline) was 90 % of control and 91 % of control; the T/C (dose: 6.25 mg/kg/injection, schedule: Q01DX010 (ip), vehicle: saline) was 100 % of control and 102 % of control; the T/C under setting [10] was 86 % of control and 97 % of control.
On to `Clc1ccc(C(c2ccccc2Cl)C(Cl)Cl)cc1` (configuration not stated), for which the T/C reads like this: (dose: 62.5 mg/kg/injection, schedule: Q01DX Z (sc), vehicle: steriod suspending solution) 105 % of control; (dose: 125.0 mg/kg/injection, schedule: Q01DX Z (sc), vehicle: steriod suspending solution) 99 % of control; (dose: 250.0 mg/kg/injection, schedule: Q01DX Z (sc), vehicle: steriod suspending solution) 107 % of control; (dose: 500.0 mg/kg/injection, schedule: Q01DX Z (sc), vehicle: steriod suspending solution) 110 % of control.
For `COS(C)(=O)=O`, the T/C (dose: 5.0 mg/kg/injection, schedule: Q01DX Z (ip), vehicle: saline) was 105 % of control; the T/C (dose: 10.0 mg/kg/injection, schedule: Q01DX Z (ip), vehicle: saline) is 103 % of control; the T/C (dose: 20.0 mg/kg/injection, schedule: Q01DX Z (ip), vehicle: saline) was 103 % of control; the T/C (dose: 40.0 mg/kg/injection, schedule: Q01DX Z (ip), vehicle: saline) was 97 % of control.
As for `C[C@@H]1C[C@H]2CC[C@H](O2)[C@H](C)C(=O)O[C@@H](C)C[C@@H]2CC[C@@H](O2)[C@@H](C)C(=O)O[C@H](C)C[C@H]2CC[C@H](O2)[C@H](C)C(=O)O[C@@H](C)C[C@@H]2CC[C@@H](O2)[C@@H](C)C(=O)O1`, under “dose: 100.0 mg/kg/injection, schedule: Q01DX Z (ip), vehicle: methylcellulose (MC)”, the T/C is 89 % of control.
On to `CN(N=O)C(=O)NC(C=O)C(O)C(O)C(O)CO` (configuration not stated), for which the T/C by setting is: under setting [10], 100 % of control; under setting [16], 106 % of control; (dose: 100.0 mg/kg/injection, schedule: Q01DX010 (ip), vehicle: saline) 100 % of control; (dose: 100.0 mg/kg/injection, schedule: Q01DX Z (ip), vehicle: saline) 97 % of control.
For the molecule `CC(=O)N(C)C`, the T/C is 90 % of control and 98 % of control under setting [1]; 106 % of control (dose: 62.5 mg/kg/injection, schedule: Q01DX Z (ip), vehicle: saline); 102 % of control under setting [2]; 122 % of control (dose: 125.0 mg/kg/injection, schedule: Q01DX Z (ip), vehicle: saline); 93 % of control and 100 % of control (dose: 250.0 mg/kg/injection, schedule: Q01DX010 (ip), vehicle: saline); 93 % of control under setting [3]. Besides, the T/C under setting [5] was 114 % of control and 88 % of control; the T/C under setting [4] was 88 % of control; the T/C (dose: 1000.0 mg/kg/injection, schedule: Q01DX Z (ip), vehicle: methylcellulose (MC)) is 87 % of control.
As to `N[C@@H](Cc1ccc(N(CCCl)CCCl)cc1)C(=O)O`, the T/C (dose: 0.5 mg/kg/injection, schedule: Q01DX Z (ip), vehicle: carboxymethylcellulose (CMC)) is 114 % of control; the T/C (dose: 1.0 mg/kg/injection, schedule: Q01DX Z (ip), vehicle: carboxymethylcellulose (CMC)) is 100 % of control; the T/C under setting [11] is 110 % of control; the T/C under setting [12] is 114 % of control; the T/C under setting [13] was 107 % of control; the T/C under setting [14] was 97 % of control. In addition, the T/C under setting [15] was 86 % of control.

For the origin of these results see PubChem BioAssay AID284 (DTP/NCI, 2004).
